Here are results for 14 molecules from patent US20240208986A1, “PHENYL AZEPINES AS RIPK1 INHIBITORS AND METHODS OF USE THEREOF” (Merck Sharp & Dohme LLC, priority 2021, published 2024).

RIPK1 (recombinant GST-RIPK1 kinase domain, residues 1-327), sequence (Q13546 1-327): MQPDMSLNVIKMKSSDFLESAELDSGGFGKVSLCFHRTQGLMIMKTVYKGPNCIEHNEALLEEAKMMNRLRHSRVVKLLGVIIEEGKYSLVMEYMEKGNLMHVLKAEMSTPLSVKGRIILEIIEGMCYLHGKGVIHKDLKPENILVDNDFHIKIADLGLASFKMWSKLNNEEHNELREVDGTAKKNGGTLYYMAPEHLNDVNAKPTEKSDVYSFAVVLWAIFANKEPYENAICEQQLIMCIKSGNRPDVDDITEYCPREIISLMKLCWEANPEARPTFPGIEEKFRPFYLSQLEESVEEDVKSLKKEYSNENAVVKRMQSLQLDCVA

The target in the test is RIPK1 (recombinant GST-RIPK1 kinase domain, residues 1-327) (Homo sapiens (Human), UniProt Q13546). Kind of test: RIPK1-ADP-Glo Enzymatic Assay. The format is biochemical. As to conditions: 25 nM GST-RIPK1, 300 μM ATP, 3 μM dephosphorylated-MBP; 30 minutes pre-incubation, 150 minutes reaction; ten-point titration. The method, then:
The enzymatic activity of RIPK1 is measured using an assay derived from ADP-Glo kit (™Promega), which provides a luminescent-based ADP detection system. Specifically, the ADP generated by RIPK1 kinase is proportionally detected as luminescent signals in a homogenous fashion. In this context, the assessment of the inhibitory effect of small molecules (EC50) is measured by the effectiveness of the compounds to inhibit the ATP to ADP conversion by RIPK1.
In this assay, the potency (EC50) of each compound was determined from a ten-point (1:3 serial dilution; top compound concentration of 100000 nM) titration curve using the following outlined procedure. To each well of a white ProxiPlus 384 well-plate, 30 nL of compound (1% DMSO in final assay volume of 3 μL) was dispensed, followed by the addition of 2 μL of 1× assay buffer (25 mM Hepes 7.3, 20 mM MgCl2, 50 mM NaCl, 1 mM DTT, 0.005% Tween20, and 0.02% BSA) containing 37.5 nM of GST-RIPK1 (recombinant GST-RIPK1 kinase domain (residues 1-327) enzyme produced from baculovirus-transfected Sf21 cells: MW=62 kDa). Plates were placed in an ambient temperature humidified chamber for a 30 minutes pre-incubation with compound. Subsequently, each reaction was initiated by the addition of 1 μL 1× assay buffer containing 900 μM ATP and 3 μM dephosphorylated-MBP substrate. The final reaction in each well of 3 μL consists of 25 nM of GST-RIPK1, 300 μM ATP, and 3 μM dephosphorylated-MBP. Kinase reactions were allowed to proceed for 150 minutes prior to adding ADP-Glo reagents per Promega's outlined kit protocol. Dose-response curves were generated by plotting percent effect (% product conversion; Y-axis) vs. Log10 compound concentrations (X-axis). EC50 values were calculated using a non-linear regression, four-parameters sigmoidal dose-response model.
On the technique in general: ADP-Glo turns the ADP formed in a reaction into a luminescent signal.
As for `COc1ccc(CC(C)(C)C(=O)N2C[C@@H]3C[C@H]2c2ccccc2O3)cc1` [Compound 1-58, 1-[(2S,5S)-2,3-dihydro-2,5-methano-1,4-benzoxazepin-4(5H)-yl]-3-(4-methoxyphenyl)-2,2-dimethylpropan-1-one], the IC50 – broadly, the concentration at which inhibition is half-maximal – is 887 nM.

For `CC(C)(C#N)C(=O)N1C[C@@H]2C[C@H]1c1ccccc1O2` [Compound 1-59, 3-[(2S,5S)-2,3-dihydro-2,5-methano-1,4-benzoxazepin-4(5H)-yl]-2,2-dimethyl-3-oxopropanenitrile], the IC50 is 159 nM.

Take `O=C(N1C[C@@H]2C[C@H]1c1ccccc1O2)C12CC(C(F)F)(C1)C2` [Compound 1-60, [3-(difluoromethyl)bicyclo [1.1.1]pentan-1-yl][(2S,5S)-2,3-dihydro-2,5-methano-1,4-benzoxazepin-4(5H)-yl]methanone]: the IC50 stood at 512 nM.

Turning to `CC(C)(C(=O)N1C[C@@H]2C[C@H]1c1cc(Cl)ccc1O2)C(F)F` [Compound 2-1, 1-[(2S,5S)-7-chloro-2,3-dihydro-2,5-methano-1,4-benzoxazepin-4(5H)-yl]-3,3-difluoro-2,2-dimethylpropan-1-one], the IC50 was 61 nM.

On to `CC(C)(C(=O)N1C[C@@H]2C[C@H]1c1cc(C#N)ccc1O2)C(F)F` [Compound 2-2, (2S,5S)-4-(3,3-difluoro-2,2-dimethylpropanoyl)-2,3,4,5-tetrahydro-2,5-methano-1,4-benzoxazepine-7-carbonitrile], for which the IC50 came out at 158 nM.

For the molecule `Cc1ccc2c(c1)[C@@H]1C[C@@H](CN1C(=O)C(C)(C)C(F)F)O2` [Compound 2-3, 3,3-difluoro-2,2-dimethyl-1-[(2S,5S)-7-methyl-2,3-dihydro-2,5-methano-1,4-benzoxazepin-4(5H)-yl]propan-1-one], the IC50 turned out to be 143 nM.

With `CC(C)(C)C(=O)N1C[C@@H]2C[C@H]1c1cc(F)cc(F)c1O2` [Compound 2-4, 1-[(2S,5S)-7,9-difluoro-2,3-dihydro-2,5-methano-1,4-benzoxazepin-4(5H)-yl]-2,2-dimethylpropan-1-one], the IC50 came to 60 nM.

As to `CC(C)(C)C(=O)N1C[C@@H]2C[C@H]1c1cc(F)ccc1O2` [Compound 2-5, 1-[(2S,5S)-7-fluoro-2,3-dihydro-2,5-methano-1,4-benzoxazepin-4(5H)-yl]-2,2-dimethylpropan-1-one], the IC50 amounted to 34 nM.

Consider `CC(C)(C)C(=O)N1C[C@@H]2C[C@H]1c1cccc(F)c1O2` [Compound 2-6, 1-[(2S,5S)-9-fluoro-2,3-dihydro-2,5-methano-1,4-benzoxazepin-4(5H)-yl]-2,2-dimethylpropan-1-one], for which the IC50 was determined as 43 nM.

For `CC(C)(C(=O)N1C[C@@H]2C[C@H]1c1cc(F)ccc1O2)C(F)F` [Compound 2-7, 3,3-difluoro-1-[(2S,5S)-7-fluoro-2,3-dihydro-2,5-methano-1,4-benzoxazepin-4(5H)-yl]-2,2-dimethylpropan-1-one], the IC50 turned out to be 25 nM.

On to `CC(C)(C(=O)N1C[C@@H]2C[C@H]1c1cccc(F)c1O2)C(F)F` [Compound 2-8, 3,3-difluoro-1-[(2S,5S)-9-fluoro-2,3-dihydro-2,5-methano-1,4-benzoxazepin-4(5H)-yl]-2,2-dimethylpropan-1-one], for which the IC50 came to 20 nM.

For the molecule `CC1(C(=O)N2C[C@@H]3C[C@H]2c2cc(F)ccc2O3)CCC1` [Compound 2-9, [(2S,5S)-7-fluoro-2,3-dihydro-2,5-methano-1,4-benzoxazepin-4(5H)-yl](1-methylcyclobutyl)methanone], the IC50 was 63 nM.

Take `CC1(C(=O)N2C[C@@H]3C[C@H]2c2cccc(F)c2O3)CCC1` [Compound 2-10, [(2S,5S)-9-fluoro-2,3-dihydro-2,5-methano-1,4-benzoxazepin-4(5H)-yl](1-methylcyclobutyl)methanone]: the IC50 came to 30 nM.

As for `CC(C)(C(=O)N1C[C@@H]2C[C@H]1c1cc(F)cc(C#N)c1O2)C(F)F` [Compound 2-11, (2S,5S)-4-(3,3-difluoro-2,2-dimethylpropanoyl)-7-fluoro-2,3,4,5-tetrahydro-2,5-methano-1,4-benzoxazepine-9-carbonitrile], the IC50 is 26 nM.
